Data taken from the supplement of paper PMC11451515.

Experiments:
Settings in all cases: 48 h
SEM cells [1] = test: cell viability relative to DMSO control; higher = less cytotoxic
Summary of the method: (§1)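 Library compounds in DMSO were pin-dosed into 1536-well plates (5 μl) holding NOMO1 or SEM (500 cells/well) or P12-Ichikawa (1000 cells/well) leukemia cells, across an 11-point threefold series of 47 μM to 0.79 nM. Each cell line had been adapted for at least four passages in each medium. CellTiter-Glo One luminescence was read after 48 h at 37°C. Viability is the per-plate percentage relative to DMSO wells, with cell-free wells as background.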

P12-Ichikawa [2] = test: as above
Summary of the method: as §1

NOMO1 [3] = test: as above
Summary of the method: as §1

SEM cells [4] = test: AUC of viability dose-response curve (% viability x log10 dose units); higher = less sensitive
Summary of the method: (§2)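 Leukemia cells adapted to each medium (500 or 1000 cells/well, 1536-well plates) were exposed to library compounds in DMSO for 48 h at 37°C at 11 threefold doses, 47 μM to 0.79 nM. Luminescence by CellTiter-Glo One was normalised per plate to DMSO and cell-free wells, then fitted with a four-parameter log-logistic curve on log10 dose. Curves above full viability were scaled and quality-control failures removed before area under the curve was integrated by trapezoidal rule.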

P12-Ichikawa [5] = test: as above
Summary of the method: as §2

NOMO1 [6] = test: as above
Summary of the method: as §2

CN(C)CCOc1ccc(/C(=C(/CCCl)c2ccccc2)c2ccccc2)cc1
cell viability [%]
Settings	NOMO1 [3]	P12-Ichikawa [2]	SEM cells [1]
HPLM + 10% dialyzed FBS, 0.000781 µM	105	102	54.7
HPLM + 10% dialyzed FBS, 0.00234 µM	116	110	92.8
HPLM + 10% dialyzed FBS, 0.00702 µM	98	107	85.2
HPLM + 10% dialyzed FBS, 0.0211 µM	94.7	107	94.2
HPLM + 10% dialyzed FBS, 0.0632 µM	104	106	108
HPLM + 10% dialyzed FBS, 0.19 µM	126	112	85.6
HPLM + 10% dialyzed FBS, 0.569 µM	100	111	88
HPLM + 10% dialyzed FBS, 1.71 µM	115	88.6	94.6
HPLM + 10% dialyzed FBS, 5.12 µM	95.5	67.2	58.5
HPLM + 10% dialyzed FBS, 15.4 µM	68.5	59.1	34
HPLM + 10% dialyzed FBS, 46.1 µM	42.2	34.9	16.5
RPMI 5 mM glucose + 10% FBS, 0.000781 µM	106	108	54.5
RPMI 5 mM glucose + 10% FBS, 0.00234 µM	104	109	100
RPMI 5 mM glucose + 10% FBS, 0.00702 µM	111	112	74.7
RPMI 5 mM glucose + 10% FBS, 0.0211 µM	109	108	96.7
RPMI 5 mM glucose + 10% FBS, 0.0632 µM	103	109	98.4
RPMI 5 mM glucose + 10% FBS, 0.19 µM	94.2	102	99.5
RPMI 5 mM glucose + 10% FBS, 0.569 µM	115	103	100
RPMI 5 mM glucose + 10% FBS, 1.71 µM	105	83.1	74.8
RPMI 5 mM glucose + 10% FBS, 5.12 µM	99.1	57.9	39.5
RPMI 5 mM glucose + 10% FBS, 15.4 µM	57.3	50.5	22.1
RPMI 5 mM glucose + 10% FBS, 46.1 µM	39.6	32.2	11.9
RPMI 5 mM glucose + 10% dialyzed FBS, 0.000781 µM	93.4	102	45.9
RPMI 5 mM glucose + 10% dialyzed FBS, 0.00234 µM	110	107	96.8
RPMI 5 mM glucose + 10% dialyzed FBS, 0.00702 µM	113	112	83.6
RPMI 5 mM glucose + 10% dialyzed FBS, 0.0211 µM	116	111	102
RPMI 5 mM glucose + 10% dialyzed FBS, 0.0632 µM	108	109	117
RPMI 5 mM glucose + 10% dialyzed FBS, 0.19 µM	125	102	97.5
RPMI 5 mM glucose + 10% dialyzed FBS, 0.569 µM	108	112	85.8
RPMI 5 mM glucose + 10% dialyzed FBS, 1.71 µM	120	80.3	85.2
RPMI 5 mM glucose + 10% dialyzed FBS, 5.12 µM	107	58.1	57.6
RPMI 5 mM glucose + 10% dialyzed FBS, 15.4 µM	76.9	44.1	36.1
RPMI 5 mM glucose + 10% dialyzed FBS, 46.1 µM	50.6	42.7	22.6

AUC of viability dose-response curve
Settings	NOMO1 [6]	P12-Ichikawa [5]	SEM cells [4]
HPLM + 10% dialyzed FBS	441	410	362
RPMI 5 mM glucose + 10% FBS	437	393	344
RPMI 5 mM glucose + 10% dialyzed FBS	448	399	369

N#Cc1ccc(NC(=O)Nc2ccccc2Br)c2nn[nH]c12
cell viability [%]
Settings	NOMO1 [3]	P12-Ichikawa [2]	SEM cells [1]
HPLM + 10% dialyzed FBS, 0.000781 µM	–	101	81.8
HPLM + 10% dialyzed FBS, 0.00234 µM	–	109	93.9
HPLM + 10% dialyzed FBS, 0.00702 µM	–	109	110
HPLM + 10% dialyzed FBS, 0.0211 µM	–	115	103
HPLM + 10% dialyzed FBS, 0.0632 µM	–	119	107
HPLM + 10% dialyzed FBS, 0.19 µM	–	123	108
HPLM + 10% dialyzed FBS, 0.569 µM	–	122	123
HPLM + 10% dialyzed FBS, 1.71 µM	–	116	126
HPLM + 10% dialyzed FBS, 5.12 µM	–	125	125
HPLM + 10% dialyzed FBS, 15.4 µM	–	126	109
HPLM + 10% dialyzed FBS, 46.1 µM	–	79.1	112
RPMI 5 mM glucose + 10% FBS, 0.000781 µM	101	101	80.7
RPMI 5 mM glucose + 10% FBS, 0.00234 µM	122	109	111
RPMI 5 mM glucose + 10% FBS, 0.00702 µM	102	112	97.9
RPMI 5 mM glucose + 10% FBS, 0.0211 µM	107	120	91.4
RPMI 5 mM glucose + 10% FBS, 0.0632 µM	117	118	113
RPMI 5 mM glucose + 10% FBS, 0.19 µM	119	134	103
RPMI 5 mM glucose + 10% FBS, 0.569 µM	122	122	101
RPMI 5 mM glucose + 10% FBS, 1.71 µM	114	117	101
RPMI 5 mM glucose + 10% FBS, 5.12 µM	107	128	107
RPMI 5 mM glucose + 10% FBS, 15.4 µM	120	127	104
RPMI 5 mM glucose + 10% FBS, 46.1 µM	119	122	81.7
RPMI 5 mM glucose + 10% dialyzed FBS, 0.000781 µM	94.1	103	93.1
RPMI 5 mM glucose + 10% dialyzed FBS, 0.00234 µM	106	110	103
RPMI 5 mM glucose + 10% dialyzed FBS, 0.00702 µM	106	111	108
RPMI 5 mM glucose + 10% dialyzed FBS, 0.0211 µM	105	108	99
RPMI 5 mM glucose + 10% dialyzed FBS, 0.0632 µM	101	117	116
RPMI 5 mM glucose + 10% dialyzed FBS, 0.19 µM	113	112	129
RPMI 5 mM glucose + 10% dialyzed FBS, 0.569 µM	123	123	125
RPMI 5 mM glucose + 10% dialyzed FBS, 1.71 µM	109	109	124
RPMI 5 mM glucose + 10% dialyzed FBS, 5.12 µM	105	121	121
RPMI 5 mM glucose + 10% dialyzed FBS, 15.4 µM	101	125	114
RPMI 5 mM glucose + 10% dialyzed FBS, 46.1 µM	115	95.7	107

AUC of viability dose-response curve
Settings	NOMO1 [6]	P12-Ichikawa [5]	SEM cells [4]
HPLM + 10% dialyzed FBS	477	475	448
RPMI 5 mM glucose + 10% FBS	463	457	473
RPMI 5 mM glucose + 10% dialyzed FBS	456	465	449
